Values joined by “and” are separate entries in the source; they are usually repeats but may differ in a detail not shown here. Equal values may be shown once. Inconclusive results and toxic doses are left out.
Tested on: L1210 leukemia ip in BDF1 mice, survival T/C
Assay: NCI In Vivo Anticancer Drug Screen. Data for tumor model L1210 Leukemia (intraperitoneal) in B6D2F1 (BDF1) mice
Conditions: endpoint: mean survival time, higher = longer survival
Outline: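 Tumor was transplanted into mice, which were then dosed with test compound or vehicle alone. Survival was recorded for each group, and the treated figure was expressed relative to the control figure.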

[1] = dose: 100.0 mg/kg/injection, schedule: Q04DX003 (ip), vehicle: saline with Tween-80
[2] = dose: 200.0 mg/kg/injection, schedule: Q04DX003 (ip), vehicle: saline with Tween-80
[3] = dose: 400.0 mg/kg/injection, schedule: Q04DX003 (ip), vehicle: saline with Tween-80

For `CN=C(NC)Nc1ccc(NC(=O)c2ccc(C(=O)Nc3ccc(NC(=NC)NC)cc3)cc2)cc1`, the T/C (dose: 0.8 mg/kg/injection, schedule: Q01DX Z (ip), vehicle: carboxymethylcellulose (CMC)) was 97 % of control, the T/C (dose: 1.62 mg/kg/injection, schedule: Q01DX Z (ip), vehicle: carboxymethylcellulose (CMC)) was 123 % of control and the T/C (dose: 1.76 mg/kg/injection, schedule: Q01DX Z (oral), vehicle: carboxymethylcellulose (CMC)) was 115 % of control. For the same molecule, the T/C (dose: 2.68 mg/kg/injection, schedule: Q01DX Z (oral), vehicle: carboxymethylcellulose (CMC)) was 109 % of control, the T/C (dose: 3.25 mg/kg/injection, schedule: Q01DX Z (ip), vehicle: carboxymethylcellulose (CMC)) was 238 % of control and the T/C (dose: 4.0 mg/kg/injection, schedule: Q01DX Z (oral), vehicle: carboxymethylcellulose (CMC)) was 117 % of control. The T/C (dose: 6.0 mg/kg/injection, schedule: Q01DX Z (oral), vehicle: carboxymethylcellulose (CMC)) was 108 % of control, the T/C (dose: 6.5 mg/kg/injection, schedule: Q01DX Z (ip), vehicle: carboxymethylcellulose (CMC)) was 173 % of control and 200 % of control and the T/C (dose: 8.0 mg/kg/injection, schedule: Q01DX001 (ip), vehicle: carboxymethylcellulose (CMC)) was 113 % of control. The T/C (dose: 8.0 mg/kg/injection, schedule: Q01DX001 (ip), vehicle: other) was 107 % of control, the T/C (dose: 11.0 mg/kg/injection, schedule: Q01DX001 (ip), vehicle: carboxymethylcellulose (CMC)) was 122 % of control and the T/C (dose: 11.0 mg/kg/injection, schedule: Q01DX001 (ip), vehicle: other) was 110 % of control. The T/C (dose: 25.0 mg/kg/injection, schedule: Q01DX Z (oral), vehicle: carboxymethylcellulose (CMC)) was 103 % of control, the T/C (dose: 26.0 mg/kg/injection, schedule: Q01DX Z (ip), vehicle: carboxymethylcellulose (CMC)) was 104 % of control and the T/C (dose: 39.0 mg/kg/injection, schedule: Q01DX001 (ip), vehicle: other) was 155 % of control. The T/C (dose: 40.0 mg/kg/injection, schedule: Q01DX001 (ip), vehicle: carboxymethylcellulose (CMC)) was 152 % of control, the T/C (dose: 40.0 mg/kg/injection, schedule: Q01DX001 (ip), vehicle: other) was 153 % of control and the T/C (dose: 50.0 mg/kg/injection, schedule: Q01DX Z (oral), vehicle: carboxymethylcellulose (CMC)) was 105 % of control. The T/C (dose: 53.0 mg/kg/injection, schedule: Q01DX Z (ip), vehicle: carboxymethylcellulose (CMC)) was 87 % of control, the T/C (dose: 60.0 mg/kg/injection, schedule: Q01DX001 (ip), vehicle: carboxymethylcellulose (CMC)) was 214 % of control and the T/C (dose: 60.0 mg/kg/injection, schedule: Q01DX001 (ip), vehicle: other) was 192 % of control. For the same molecule, the T/C (dose: 90.0 mg/kg/injection, schedule: Q01DX001 (ip), vehicle: carboxymethylcellulose (CMC)) was 234 % of control, the T/C (dose: 90.0 mg/kg/injection, schedule: Q01DX001 (ip), vehicle: other) was 236 % of control and the T/C (dose: 100.0 mg/kg/injection, schedule: Q01DX Z (oral), vehicle: carboxymethylcellulose (CMC)) was 103 % of control. The T/C (dose: 200.0 mg/kg/injection, schedule: Q01DX Z (oral), vehicle: carboxymethylcellulose (CMC)) was 102 % of control.
For `CNC(=O)ON=C1CCC(CC2CCCCC2)CC1` (stereo not given), the T/C (dose: 50.0 mg/kg/injection, schedule: Q01DX009 (ip), vehicle: Klucel (hydroxypropylcellulose) (HPC)) was 100 % of control, the T/C (dose: 100.0 mg/kg/injection, schedule: Q01DX009 (ip), vehicle: Klucel (hydroxypropylcellulose) (HPC)) was 91 % of control and the T/C (dose: 100.0 mg/kg/injection, schedule: Q04DX003 (ip), vehicle: Klucel (hydroxypropylcellulose) (HPC)) was 92 % of control. For the same molecule, the T/C (dose: 200.0 mg/kg/injection, schedule: Q01DX009 (ip), vehicle: Klucel (hydroxypropylcellulose) (HPC)) was 96 % of control and the T/C (dose: 200.0 mg/kg/injection, schedule: Q04DX003 (ip), vehicle: Klucel (hydroxypropylcellulose) (HPC)) was 94 % of control.
`Cc1ccc(NC(=O)Nc2cccc(Cl)c2C)cc1NC(=O)Nc1cccc(Cl)c1C` was tested, and the T/C (dose: 100.0 mg/kg/injection, schedule: Q01DX009 (ip), vehicle: saline with Tween-80) was 87 % of control, the T/C [1] was 90 % of control and the T/C (dose: 200.0 mg/kg/injection, schedule: Q01DX009 (ip), vehicle: saline with Tween-80) was 87 % of control. For the same molecule, the T/C [2] was 91 % of control, the T/C (dose: 400.0 mg/kg/injection, schedule: Q01DX009 (ip), vehicle: saline with Tween-80) was 86 % of control and the T/C [3] was 91 % of control.
`O=C(Nc1ccccc1)Nc1ccc([N+](=O)[O-])cc1O` was tested, and the T/C [1] was 103 % of control, the T/C [2] was 113 % of control and the T/C [3] was 100 % of control.
`Cc1ccc(Cl)cc1NC(=S)Nc1ccccc1` was tested, and the T/C (dose: 100.0 mg/kg/injection, schedule: Q04DX002 (ip), vehicle: Klucel (hydroxypropylcellulose) (HPC)) was 100 % of control, the T/C (dose: 200.0 mg/kg/injection, schedule: Q04DX002 (ip), vehicle: Klucel (hydroxypropylcellulose) (HPC)) was 103 % of control and the T/C (dose: 400.0 mg/kg/injection, schedule: Q04DX002 (ip), vehicle: Klucel (hydroxypropylcellulose) (HPC)) was 106 % of control.
`Cc1ccc(C2OC23CC(C)(C)c2ccccc2C3=O)cc1` (stereo not given) was tested, and the T/C [1] was 93 % of control, the T/C [2] was 96 % of control and the T/C [3] was 93 % of control.
